In patent publication US7919495B2, “Pyridyl non-aromatic nitrogen-containing heterocyclic-1-carboxylate compound” (Astellas Pharma, Inc., priority 2005, dated 2011):
pIC50: −log10 of the molar value. Where a name gives a salt, the structure may show the parent alone.

Target: T1, FAAH in human bladder epithelial cancer-derived cell line 5678 cells (Homo sapiens, UniProt O00519)
T1 construct: host or cells: human bladder epithelial cancer-derived cell line ('5678' [sic], HTB-9)
T1 sequence (O00519 1-579): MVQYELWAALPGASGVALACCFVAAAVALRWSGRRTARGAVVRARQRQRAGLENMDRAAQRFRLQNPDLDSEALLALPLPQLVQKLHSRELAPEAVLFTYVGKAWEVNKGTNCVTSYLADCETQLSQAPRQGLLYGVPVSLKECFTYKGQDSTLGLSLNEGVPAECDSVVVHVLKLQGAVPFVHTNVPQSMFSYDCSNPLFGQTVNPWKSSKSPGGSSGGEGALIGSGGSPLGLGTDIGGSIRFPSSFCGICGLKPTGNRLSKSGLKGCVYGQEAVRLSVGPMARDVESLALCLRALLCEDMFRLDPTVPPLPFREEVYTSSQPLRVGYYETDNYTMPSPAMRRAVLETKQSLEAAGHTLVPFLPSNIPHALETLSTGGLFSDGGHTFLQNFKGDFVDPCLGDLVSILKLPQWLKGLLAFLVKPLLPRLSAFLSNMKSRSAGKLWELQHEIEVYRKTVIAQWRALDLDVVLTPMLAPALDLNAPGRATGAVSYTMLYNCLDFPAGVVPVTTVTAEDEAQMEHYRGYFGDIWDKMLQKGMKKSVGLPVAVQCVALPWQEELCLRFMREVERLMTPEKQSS
Assay: Screening for FAAH activity-inhibiting substance with human bladder epithelial cancer-derived cell (IC50, Table 64)
Assay type: cell-based
Conditions: not given
Description: Screening for FAAH Activity-Inhibiting Substance with Human Bladder Epithelial Cancer-Derived Cell
(1) Screening for FAAH Activity-Inhibiting Substance:
Human bladder epithelial cancer-derived cell line […] cells (HTB-9; ATCC) were seeded on a 48-well cell culture plate in an amount of 1×10^5 cell/well, using 10% fetal bovine serum (HyClone)-containing RPMI1640 medium (Invitrogen). After incubated at 37° C. for at least 12 hours, the cells were washed with 400 μl/well of a buffer (Hank's Balanced Salt Solution, 20 mM Hepes-NaOH (pH 7.4)). A test substance dissolved in DMSO was added to a substrate solution (the above buffer containing 3 μCi/ml radiolabeled anandamide (Anandamide [ethanolamine 1-3H]) and 10 μM anandamide) so as to have a concentration of from 0.003 nM to 30 nM. As a control, DMSO alone was added. 100 μl/well of the substrate solution was added to the above cells, and incubated in a CO2 incubator at 37° C. for 30 minutes. Next, the cell culture plate was transferred onto ice, and the substrate solution was removed by suction; and 75 μl/well of a cytolytic solution (the above buffer containing 0.5% Triton X-100, and 10 μM of FAAH-inhibitory activity-having compound, 3′-carbamoylbiphenyl-3-yl cyclohexylcarbamate (URB597; Cayman chemical; Kathuria et al., Nature Med., Vol. 9, pp. 76-81, 2003)) was added thereto, followed by stirring. The resulting cell lysate in every well was individually transferred into a 1.5 ml sample tube, to which was added 150 μl of 1:1 (by volume) chloroform/methanol solution, followed by vortexing. This was centrifuged (15000 rpm, 2 minutes), whereby the decomposed product, ethanolamine (ethanolamine 1-^3H) was separated in the upper layer (water/methanol layer) and the unreacted radiolabeled anandamide was in the lower layer (chloroform layer). 25 μl of the upper layer was transferred into a 96-well organic solvent-resistant white microplate (PicoPlate-96; Perkin Elmer), 150 μl of Microscint-20 (Perkin Elmer) was added thereto, and this was measured with a microplate scintillation counter (TopCount™; Beckman). As compared with the control, the substance that gave a decreased value was selected as an FAAH activity-inhibiting substance.
(2) Measurement of IC50 Value of FAAH Activity-Inhibiting Substance:
A test compound dissolved in DMSO to have a concentration of 10 mM was dissolved in the substrate solution so as to have a varying concentration of from 0.003 nM to 30 μM. According to the method mentioned above, the compound was analyzed for its influence on FAAH activity. As a negative control, DMSO was used. As a positive control, URB597 was added to the substrate solution to have a concentration of 10 μM. Based on the measured value of the positive control, 0%, and on the measured value of the negative control, 100%, IC50 value of the test substance was obtained.

In order of falling pIC50:
1. NC(=O)c1cncc(OC(=O)N2CCC(CCc3ccc(-c4ccc(F)cc4)cc3)CC2)c1 [Example 338]  10.47
2. CC(=O)OCc1cncc(OC(=O)N2CCC(Oc3ccc(OCc4cccc(F)c4)cc3)CC2)c1 [Example 100]  10.46
3. O=C(Oc1cccnc1)N1CCC(S(=O)(=O)c2ccc(OCc3cccc(F)c3)cc2)CC1 [Example 80]  10.36
4. NC(=O)c1cncc(OC(=O)N2CCC(CCc3cccc(-c4ccccc4)c3)CC2)c1 [Example 340]  10.28
5. NC(=O)c1cncc(OC(=O)N2CCC(CCc3cccc(-c4ccccn4)c3)CC2)c1 [Example 349]  10.27
6. O=C(Oc1cccnc1)N1CCC(c2cccc(OCCCc3ccccc3)c2)CC1 [Example 113]  10.25
7. O=C(Oc1cccnc1)N1CCN(C(=O)c2ccc(OCc3ccc(F)cc3)cc2)CC1 [Example 155]  10.21
8. O=C(c1ccc(OCc2cccc(F)c2)cc1)C1CCN(C(=O)Oc2cccnc2)CC1 [Example 3]  10.14
9. O=C(Oc1cccnc1)N1CCN(C(=O)c2cccc(OCc3cccc(Cl)c3)c2)CC1 [Example 138]  10.11
10. O=C(Oc1cccnc1)N1CCC(Sc2cccc(OCc3cccc(F)c3)c2)CC1 [Example 101]  10.11
11. N#Cc1cccc(-c2cccc(CCC3CCN(C(=O)Oc4cncc(C(N)=O)c4)CC3)c2)c1 [Example 341]  10.11
12. O=C(O)c1cncc(OC(=O)N2CCC(CCc3ccc(-c4ccccc4)cc3)CC2)c1 [Example 281]  10.09
13. O=C(Oc1cccnc1)N1CCC(Oc2ccc(OCc3cccc(F)c3)cn2)CC1 [Example 103]  10.04
14. O=C(Oc1cccnc1)N1CCC(Oc2ccc(OCc3ccccc3)c(Cl)c2)CC1 [Example 70]  10.00
15. COc1cccc(-c2ccc(CCC3CCN(C(=O)Oc4cncc(C(=O)O)c4)CC3)cc2)c1 [Example 303]  9.92
16. NC(=O)c1cncc(OC(=O)N2CCC(CCc3cccc(C(=O)NC4CCCCC4)c3)CC2)c1 [Example 351]  9.89
17. N#Cc1ccc(-c2ccc(CCC3CCN(C(=O)Oc4cncc(C(N)=O)c4)CC3)cc2)cc1 [Example 344]  9.89
18. O=C(Oc1cccnc1)N1CCC(Oc2ccc(OCc3ccccc3F)cc2)CC1 [Example 208]  9.89
19. O=C(Oc1cccnc1)N1CCN(C(=O)c2cccc(OCC3CCCCC3)c2)CC1 [Example 122]  9.82
20. O=C(O)c1cncc(OC(=O)N2CCC(CCc3ccc(-c4cccc(F)c4)cc3)CC2)c1 [Example 302]  9.77
21. O=C(Oc1cccnc1)N1CCC(Oc2ccc(OCc3cccc(Cl)c3)cc2)CC1 [Example 206, 3-pyridyl 4-{4-[(3-chlorobenzyl)oxy]phenoxy}-1-piperidinecarboxylate hydrochloride]  9.77
22. O=C(Oc1cccnc1)N1CCN(C(=O)c2ccc(OCc3cccc([N+](=O)[O-])c3)cc2)CC1 [Example 154]  9.77
23. NC(=O)c1cncc(OC(=O)N2CCC(CCc3ccc(-c4cccc(F)c4)cc3)CC2)c1 [Example 345]  9.74
24. O=C(Oc1cccnc1)N1CCN(C(=O)c2ccc(OCc3cc(F)cc(F)c3)cc2)CC1 [Example 152]  9.74
25. CN(C)c1cncc(OC(=O)N2CCC(Oc3ccc(OCc4cccc(F)c4)cc3)CC2)c1 [Example 30]  9.72
26. Cc1cccc(N2CCC(CCCC3CCN(C(=O)Oc4cncc(C(N)=O)c4)CC3)CC2)n1 [Example 378]  9.70
27. O=C(Oc1cccnc1)N1CCN(C(=O)c2ccc(OCc3cccc(Br)c3)cc2)CC1 [Example 159]  9.64
28. O=C(O)c1cncc(OC(=O)N2CCC(CCc3cccc(-c4ccccc4)c3)CC2)c1 [Example 293]  9.62
29. O=C(O)c1cncc(OC(=O)N2CCC(CCc3ccc(-c4ccccc4F)cc3)CC2)c1 [Example 304]  9.62
30. O=C(Oc1cccnc1)N1CCC(Oc2ccc(OCc3ccccc3)cc2Cl)CC1 [Example 51]  9.59
31. Cc1ccc(OC(=O)N2CCC(Oc3ccc(OCc4cccc(F)c4)cc3)CC2)cn1 [Example 13]  9.57
32. NC(=O)c1cncc(OC(=O)N2CCC(CCc3ccc(-c4ccccc4F)cc3)CC2)c1 [Example 346]  9.57
33. NC(=O)c1cccc(-c2cncc(OC(=O)N3CCC(CCc4ccccc4)CC3)c2)c1 [Example 266]  9.51
34. O=C(Oc1cccnc1)N1CCC(Oc2ccc(OCCC3CCCCC3)cc2)CC1 [Example 207]  9.51
35. COC(=O)CCc1cncc(OC(=O)N2CCC(Oc3ccc(OCc4cccc(F)c4)cc3)CC2)c1 [Example 61]  9.46
36. NC(=O)c1cncc(OC(=O)N2CCC(CCCC3CCN(c4ccc5ccccc5n4)CC3)CC2)c1 [Example 380]  9.46
37. O=C(Oc1cccnc1)N1CCC(S(=O)(=O)c2ccc(OCc3ccccc3)cc2)CC1 [Example 88]  9.43
38. N#Cc1ccc(-c2ccc(CCC3CCN(C(=O)Oc4cncc(C(=O)O)c4)CC3)cc2)cc1 [Example 301]  9.40
39. CCN(CC)C(=O)c1ccc(CCC2CCN(C(=O)Oc3cncc(C(N)=O)c3)CC2)cc1 [Example 362]  9.38
40. COc1cccc(CCC2CCN(C(=O)Oc3cncc(C(=O)NCCO)c3)CC2)c1 [Example 328]  9.38
41. NC(=O)CCNC(=O)c1cncc(OC(=O)N2CCC(CCc3ccccc3)CC2)c1 [Example 333]  9.37
42. O=C(Oc1cncc(Cl)c1)N1CCC(Oc2ccc(OCc3cccc(F)c3)cc2)CC1 [Example 42]  9.37
43. COc1ccc(-c2ccc(CCC3CCN(C(=O)Oc4cncc(C(=O)O)c4)CC3)cc2)cc1 [Example 300]  9.37
44. O=C(O)c1cncc(OC(=O)N2CCC(Oc3ccc(OCc4cccc(F)c4)cc3)CC2)c1 [Example 218, 5-{[(4-{4-[(3-fluorobenzyl)oxy]phenoxy}piperidin-1-yl)carbonyl]oxy}nicotinic acid]  9.36
45. O=C(Oc1cccnc1)N1CCN(C(=O)c2ccc(OCc3cccc(C(F)(F)F)c3)cc2)CC1 [Example 149]  9.35
46. CC(C)NC(=O)c1cccc(CCC2CCN(C(=O)Oc3cncc(C(N)=O)c3)CC2)c1 [Example 372]  9.31
47. O=C(O)c1cncc(OC(=O)N2CCC(CCCC3CCN(c4ccc5ccccc5n4)CC3)CC2)c1 [Example 315]  9.29
48. O=C(Oc1cccnc1)N1CCN(C(=O)c2ccc(OCCc3cccc(Cl)c3)cc2)CC1 [Example 160]  9.29
49. N#Cc1cccc(CCC2CCN(C(=O)Oc3cncc(C(=O)NCCO)c3)CC2)c1 [Example 330]  9.28
50. O=C(O)C(=O)O.O=C(O)C1CCN(c2cncc(OC(=O)N3CCC(Oc4ccc(OCc5cccc(F)c5)cc4)CC3)c2)CC1 [Example 261, 1-(5-{[(4-{4-[(3-fluorobenzyl)oxy]phenoxy}piperidin-1-yl)carbonyl]oxy}pyridin-3-yl)piperidine-4-carboxylic acid oxalate]  9.27
51. N#Cc1cccc(-c2cccc(CCC3CCN(C(=O)Oc4cncc(C(=O)O)c4)CC3)c2)c1 [Example 294]  9.22
52. CCCCCCCCc1ccc(NC(=O)C2CCN(C(=O)Oc3cccnc3)CC2)cc1 [Example 176]  9.08

Same assay, conditions: human bladder epithelial cancer-derived cell line 5678 cells; read-out: cell FAAH IC50

Compound `O=C(Nc1ccccc1)C1CCN(C(=O)Oc2cccnc2)CC1` [Example 173] has a pIC50 of 9.16.

Test system: CPA-induced urinary frequency in rat
Assay: animal or person
Assay type: in vivo
Conditions: po, 48 h, read-out: effective dose (increase of reduced effective bladder capacity)

In order of falling minimal effective dose:
1. O=C(O)C(=O)O.O=C(O)C1CCN(c2cncc(OC(=O)N3CCC(Oc4ccc(OCc5cccc(F)c5)cc4)CC3)c2)CC1 [Example 261, 1-(5-{[(4-{4-[(3-fluorobenzyl)oxy]phenoxy}piperidin-1-yl)carbonyl]oxy}pyridin-3-yl)piperidine-4-carboxylic acid oxalate]  3 mg/kg
2. O=C(O)c1cncc(OC(=O)N2CCC(Oc3ccc(OCc4cccc(F)c4)cc3)CC2)c1 [Example 218, 5-{[(4-{4-[(3-fluorobenzyl)oxy]phenoxy}piperidin-1-yl)carbonyl]oxy}nicotinic acid]  3 mg/kg
